# Biological target: T1, N-type Ca^2+ Channel (Homo sapiens, UniProt Q00975)
# T1 construct: host or cells: IMR-32 cells differentiated with dibutyryl cAMP and bromodeoxyuridine
# Experiment: Measurement of N-type Ca2+ channel blocking potencies in IMR-32 cells using the fluorescent Ca2+ indicator Indo-1
# Assay type: cell-based
# Conditions: 1 μM; IMR-32 cells, 5 μM nitrendipine
# Method: Measurement of N-type Ca^2+ Channel Blocking Potencies of Compounds in IMR-32 Cells Using the Fluorescent Ca^2 + Indicator Indo-1
# IMR-32 cells are a human tumoral cell line of neural origin. […] Calcium flux into these cells may be induced by stimulation with elevated potassium concentrations. The L-channel component of calcium flux may be blocked by adding 5 μM nitrendipine. The remaining component of calcium entry into the IMR-32 cells is due to calcium flux through N-type calcium channels. Intracellular calcium concentrations are measured using the fluorescent calcium indicator Indo-1. The effect of drug concentration on calcium uptake is studied.
# The IMR-32 cell line was obtained from the American Type Culture Collection (Rockville, Md.). Cells were grown in Eagle's Minimum Essential Medium with Earle's salts supplemented with 10% fetal bovine serum, 2 mM L-Gln and antibiotic/antimycotic mixture (Gibco). At approximately 80% confluency, differentiation was induced by the addition of 1 mM dibutyryl cAMP and 2.5 μM bromodeoxyuridine to the medium. After 7 to 13 days of differentiation, cells were detached using 0.5 mM EDTA and loaded with 5 μM Indo-1 acetoxymethyl ester (Molecular Probes, Eugene, Oreg.) at 30° C. for 45 minutes. Loaded cells were washed twice, resuspended (~10^7 cells/mL) in assay buffer (10 mM HEPES/Tris pH 7.4 in Hank's Balanced Salt Solution without bicarbonate or phenol red containing 0.5% bovine serum albumin) and kept on ice until use. Fluorescence measurements were carried out in a Photon Technology International (PTI, South Brunswick, N.J.) Model RF-F3004 spectrofluorometer with dual emission monochromators using excitation at 350 nm and emission at 400 and 490 nm. The instrument was equipped with a thermostated cuvette holder with stirring capabilities as well as with a computer-controlled pump which allowed for reagent addition during measurement. Instrument control and data collection was done by PTI's OSCAR software running on an IBM compatible computer. Different concentrations of the test compounds (60 μL in dimethyl sulfoxide) were added to 5.94 mL of assay buffer containing approximately 3×10^6 loaded cells, and 5 μM nitrendipine (in 30 μL EtOH) to block L-type Ca^2+ channels. Samples were incubated for 10 minutes at 30° C. and then aliquoted into three 10×10 mm disposable acrylic cuvettes. Emission signals at 400 and 490 nm were acquired from each cuvette at 30° C. for 50 seconds. At 20 seconds after the start of reading, cells were depolarized by the addition of 160 μL of stimulation solution (1 M KCl, 68 mM CaCl2) to the cuvette via the computer-controlled pump. Ratio of dual emission signals (400 nm/ 490 nm), which is proportional to intracellular Ca^2+ concentration, was plotted against time, and the difference between maximal response after stimulation and basal value (before stimulation) was determined. Values obtained in this way were plotted as a function of drug concentration. IC50 values of test compounds were calculated by fitting a four-parameter logistic function to the data using the least squares method.
# T1 sequence (Q00975 whole entry): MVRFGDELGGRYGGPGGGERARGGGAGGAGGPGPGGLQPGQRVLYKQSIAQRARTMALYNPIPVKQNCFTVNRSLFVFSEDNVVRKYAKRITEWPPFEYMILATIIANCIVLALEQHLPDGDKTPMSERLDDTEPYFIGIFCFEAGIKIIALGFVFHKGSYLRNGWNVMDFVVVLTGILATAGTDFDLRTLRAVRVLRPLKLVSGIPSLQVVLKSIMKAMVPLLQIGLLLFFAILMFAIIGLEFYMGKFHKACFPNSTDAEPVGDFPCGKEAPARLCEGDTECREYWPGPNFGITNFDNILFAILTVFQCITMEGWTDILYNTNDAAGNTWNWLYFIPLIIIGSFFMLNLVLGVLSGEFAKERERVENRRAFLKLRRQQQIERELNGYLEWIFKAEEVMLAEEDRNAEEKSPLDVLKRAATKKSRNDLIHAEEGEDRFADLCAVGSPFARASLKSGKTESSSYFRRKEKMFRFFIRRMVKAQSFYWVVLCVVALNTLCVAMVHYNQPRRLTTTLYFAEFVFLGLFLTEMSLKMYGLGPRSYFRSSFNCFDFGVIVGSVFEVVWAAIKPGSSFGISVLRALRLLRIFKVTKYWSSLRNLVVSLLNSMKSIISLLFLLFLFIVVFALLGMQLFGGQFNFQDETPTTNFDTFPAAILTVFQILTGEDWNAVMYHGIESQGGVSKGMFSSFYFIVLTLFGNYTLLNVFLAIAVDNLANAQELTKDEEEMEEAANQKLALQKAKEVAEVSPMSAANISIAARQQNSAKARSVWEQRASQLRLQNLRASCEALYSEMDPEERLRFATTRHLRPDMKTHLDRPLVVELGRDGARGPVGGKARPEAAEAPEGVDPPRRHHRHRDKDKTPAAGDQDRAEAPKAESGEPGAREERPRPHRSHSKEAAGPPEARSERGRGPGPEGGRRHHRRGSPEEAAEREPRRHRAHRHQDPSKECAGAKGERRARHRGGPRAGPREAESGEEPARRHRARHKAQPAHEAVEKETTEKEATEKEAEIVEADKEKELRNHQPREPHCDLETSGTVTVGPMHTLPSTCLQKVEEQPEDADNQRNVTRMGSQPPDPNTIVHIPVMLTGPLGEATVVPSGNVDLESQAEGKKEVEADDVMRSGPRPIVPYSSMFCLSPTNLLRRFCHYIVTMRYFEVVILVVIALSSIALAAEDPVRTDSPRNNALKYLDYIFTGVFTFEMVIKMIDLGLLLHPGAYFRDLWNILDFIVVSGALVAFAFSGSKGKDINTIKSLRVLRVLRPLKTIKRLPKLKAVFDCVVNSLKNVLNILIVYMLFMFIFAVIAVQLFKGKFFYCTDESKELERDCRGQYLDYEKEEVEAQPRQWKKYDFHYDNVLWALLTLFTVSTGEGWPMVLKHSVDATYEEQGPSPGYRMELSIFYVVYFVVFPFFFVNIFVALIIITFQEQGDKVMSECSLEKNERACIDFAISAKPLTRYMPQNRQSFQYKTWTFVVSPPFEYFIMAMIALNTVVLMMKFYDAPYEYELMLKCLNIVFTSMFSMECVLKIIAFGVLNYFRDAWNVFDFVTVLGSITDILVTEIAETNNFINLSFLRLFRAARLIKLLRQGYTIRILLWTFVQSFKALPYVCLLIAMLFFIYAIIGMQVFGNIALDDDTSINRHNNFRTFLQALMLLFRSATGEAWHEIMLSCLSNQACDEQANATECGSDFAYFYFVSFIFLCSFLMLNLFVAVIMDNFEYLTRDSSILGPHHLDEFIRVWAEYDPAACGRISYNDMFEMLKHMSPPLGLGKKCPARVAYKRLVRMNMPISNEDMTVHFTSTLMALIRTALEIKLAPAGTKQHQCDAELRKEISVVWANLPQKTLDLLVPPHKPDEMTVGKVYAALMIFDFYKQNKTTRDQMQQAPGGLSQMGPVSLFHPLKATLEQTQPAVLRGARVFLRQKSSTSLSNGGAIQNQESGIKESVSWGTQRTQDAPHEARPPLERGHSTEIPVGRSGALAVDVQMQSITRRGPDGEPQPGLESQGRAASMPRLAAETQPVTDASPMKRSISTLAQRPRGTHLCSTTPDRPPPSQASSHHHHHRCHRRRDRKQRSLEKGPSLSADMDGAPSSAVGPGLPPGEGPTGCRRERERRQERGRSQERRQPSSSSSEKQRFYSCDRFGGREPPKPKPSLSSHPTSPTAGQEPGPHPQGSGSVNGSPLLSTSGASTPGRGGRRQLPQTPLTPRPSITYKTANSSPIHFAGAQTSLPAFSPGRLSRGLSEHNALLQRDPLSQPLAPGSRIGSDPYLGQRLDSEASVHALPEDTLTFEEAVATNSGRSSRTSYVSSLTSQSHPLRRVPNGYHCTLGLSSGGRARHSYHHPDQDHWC
# T1 sequence (P54284 whole entry partner): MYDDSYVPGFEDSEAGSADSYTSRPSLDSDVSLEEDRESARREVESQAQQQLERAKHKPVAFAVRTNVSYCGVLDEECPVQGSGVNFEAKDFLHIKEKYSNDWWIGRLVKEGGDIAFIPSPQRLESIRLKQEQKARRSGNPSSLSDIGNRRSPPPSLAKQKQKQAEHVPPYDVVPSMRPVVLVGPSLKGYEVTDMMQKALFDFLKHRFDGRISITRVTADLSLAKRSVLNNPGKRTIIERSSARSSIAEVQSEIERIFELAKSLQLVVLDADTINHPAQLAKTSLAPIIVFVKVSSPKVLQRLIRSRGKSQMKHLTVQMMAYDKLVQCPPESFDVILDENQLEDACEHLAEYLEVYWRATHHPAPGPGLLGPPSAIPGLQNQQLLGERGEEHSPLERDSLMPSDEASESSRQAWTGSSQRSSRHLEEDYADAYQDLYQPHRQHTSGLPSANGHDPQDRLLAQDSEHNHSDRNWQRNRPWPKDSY
# T1 sequence (P54289 25-946 partner limits assumed): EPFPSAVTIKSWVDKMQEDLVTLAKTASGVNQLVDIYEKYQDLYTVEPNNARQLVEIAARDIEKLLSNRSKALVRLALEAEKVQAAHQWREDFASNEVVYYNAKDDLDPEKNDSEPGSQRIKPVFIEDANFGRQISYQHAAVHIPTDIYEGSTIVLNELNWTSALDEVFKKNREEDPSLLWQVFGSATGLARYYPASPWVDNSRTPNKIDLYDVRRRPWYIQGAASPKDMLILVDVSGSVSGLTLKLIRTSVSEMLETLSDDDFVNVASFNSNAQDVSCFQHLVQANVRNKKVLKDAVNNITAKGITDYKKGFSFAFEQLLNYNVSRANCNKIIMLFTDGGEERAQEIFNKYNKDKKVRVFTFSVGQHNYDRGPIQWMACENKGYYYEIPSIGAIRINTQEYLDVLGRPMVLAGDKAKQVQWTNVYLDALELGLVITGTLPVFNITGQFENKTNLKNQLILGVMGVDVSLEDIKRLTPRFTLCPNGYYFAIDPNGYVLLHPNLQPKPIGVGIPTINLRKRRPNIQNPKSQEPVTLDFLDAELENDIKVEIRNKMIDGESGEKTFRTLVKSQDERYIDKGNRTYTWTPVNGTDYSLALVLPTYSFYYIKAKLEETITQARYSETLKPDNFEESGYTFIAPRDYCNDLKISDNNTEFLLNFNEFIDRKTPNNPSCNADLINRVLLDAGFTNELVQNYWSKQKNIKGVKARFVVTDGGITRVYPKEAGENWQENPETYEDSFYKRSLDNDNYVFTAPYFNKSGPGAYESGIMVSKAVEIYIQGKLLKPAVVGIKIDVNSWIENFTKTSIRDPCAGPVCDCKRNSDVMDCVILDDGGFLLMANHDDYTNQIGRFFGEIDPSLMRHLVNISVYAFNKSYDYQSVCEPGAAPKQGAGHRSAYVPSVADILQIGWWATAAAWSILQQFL
# T1 sequence (P54289 947-1103 partner limits assumed): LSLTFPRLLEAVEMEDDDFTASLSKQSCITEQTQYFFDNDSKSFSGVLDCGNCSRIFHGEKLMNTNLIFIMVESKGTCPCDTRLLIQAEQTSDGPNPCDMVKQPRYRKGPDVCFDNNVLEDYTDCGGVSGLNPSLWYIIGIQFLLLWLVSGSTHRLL
row,Compound,IMR 32 % of Blockade @ 1 μM
1,"CC(C)CCN(C)[C@@H](CC(C)C)C(=O)N[C@@H](Cc1ccc(OCc2ccccc2)cc1)C(=O)N1CCCCC1 (relative stereo) [Example 8, [S-(R*,R*)]-4-Methyl-2-[methyl-(3-methyl-butyl)-amino]-pentanoic acid [1-(4-benzyloxy-benzyl)-2-oxo-2-piperidin-1-yl-ethyl]-amide]",70%
2,"CC(C)C[C@@H](C(=O)N[C@@H](Cc1ccc(OCc2ccccc2)cc1)C(=O)N1CCN(Cc2ccccc2)CC1)N(C)C (relative stereo) [Example 4, [S-(R*,R*)]-2-Dimethylamino-4-methyl-pentanoic acid [1-(4-benzyloxy-benzyl)-2-(4-benzyl-piperazin-1-yl)-2-oxo-ethyl]-amide]",50%
3,"CC(C)C[C@@H](C(=O)N[C@@H](Cc1ccc(OCc2ccccc2)cc1)C(=O)NCCN1CCCCC1)N(C)Cc1ccc(C(C)(C)C)cc1 (relative stereo) [Example 15, [S-(R*,R*)]-2-[(4-tert-Butyl-benzyl)-methyl-amino]-4-methyl-pentanoic acid [2-(4-benzyloxy-phenyl)-1-(2-piperidin-1-yl-ethylcarbamoyl)-ethyl]-amide]",56%

# Same assay, conditions: 10 μM; IMR-32 cells, 5 μM nitrendipine
row,Compound,IMR 32 % of Blockade @ 10 μM
1,"CC(C)CCN(C)[C@@H](CC(C)C)C(=O)N[C@@H](Cc1ccc(OCc2ccccc2)cc1)C(=O)N1CCCCC1 (relative stereo) [Example 8, [S-(R*,R*)]-4-Methyl-2-[methyl-(3-methyl-butyl)-amino]-pentanoic acid [1-(4-benzyloxy-benzyl)-2-oxo-2-piperidin-1-yl-ethyl]-amide]",87%
2,"CC(C)C[C@@H](C(=O)N[C@@H](Cc1ccc(OCc2ccccc2)cc1)C(=O)N1CCN(Cc2ccccc2)CC1)N(C)C (relative stereo) [Example 4, [S-(R*,R*)]-2-Dimethylamino-4-methyl-pentanoic acid [1-(4-benzyloxy-benzyl)-2-(4-benzyl-piperazin-1-yl)-2-oxo-ethyl]-amide]",94%
3,"CC(C)C[C@@H](C(=O)N[C@@H](Cc1ccc(OCc2ccccc2)cc1)C(=O)NCCN1CCCCC1)N(C)Cc1ccc(C(C)(C)C)cc1 (relative stereo) [Example 15, [S-(R*,R*)]-2-[(4-tert-Butyl-benzyl)-methyl-amino]-4-methyl-pentanoic acid [2-(4-benzyloxy-phenyl)-1-(2-piperidin-1-yl-ethylcarbamoyl)-ethyl]-amide]",80%

# Same assay, conditions: IMR-32 cells, 5 μM nitrendipine; Examples 116-140; read-out: IMR 32% of Blockade @
row,Compound,IC50
1,"[S-(R*,R*)]-4-Methyl-2-(tetrahydropyran-4-yl-amino)-pentanoic acid [2-(4-benzyloxy-phenyl)-1-(-(2-pyridin-2-yl-ethylcarbamoyl)-ethyl]-amide [Example 128]",3900 nM
2,"CC(C)C[C@@H](C(=O)N[C@@H](Cc1ccc(OCc2ccccc2)cc1)C(=O)NCCCn1ccnc1)N(C)C (relative stereo) [Example 134, [S-(R*,R*)]-2-Dimethylamino-4-methyl-pentanoic acid [2-(4-benzyloxy-phenyl)-1-(3-imidazol-1-yl-propylcarbamoyl)-ethyl]-amide]",1600 nM
3,"CC(C)CCN(C)[C@@H](CC(C)C)C(=O)N[C@@H](Cc1ccc(OCc2ccccc2)cc1)C(=O)NCCN1CCCCC1 (relative stereo) [Example 117, [S-(R*,R*)]-4-Methyl-2-[methyl-(3-methylbutyl)-amino]-pentanoic acid [2-(4-benzyloxy-phenyl)-1-(2-piperidin-1-yl-ethylcarbamoyl)-ethyl]-amide]",640 nM
4,"[S-(R*,R*)]-2-Dimethylamino-4-methyl-pentanoic acid [2-(4-benzyloxy-phenyl)-1-(2-hydroxymethylbutan-1-ol)-ethyl]-amide [Example 137]",6200 nM
5,"CC(C)C[C@H](NC1CCOCC1)C(=O)N[C@@H](Cc1ccc(OCc2ccccc2)cc1)C(=O)NCCCn1ccnc1 (relative stereo) [Example 129, [S-(R*,R*)]-4-Methyl-2-(tetrahydropyran-4-yl-amino)-pentanoic acid [2-(4-benzyloxy-phenyl)-1-(3-imidazol-1-yl-propylcarbamoyl)-ethyl]-amide]",6300 nM
6,"CCC(COC)NC(=O)[C@H](Cc1ccc(OCc2ccccc2)cc1)NC(=O)[C@H](CC(C)C)N(C)C (relative stereo) [Example 138, [S-(R*,R*)]-2-Dimethylamino-4-methyl-pentanoic acid [2-(4-benzyloxy-phenyl)-1-(1-methoxymethyl-propylcarbamoyl)-ethyl]-amide]",3000 nM

# Same assay, conditions: IMR-32 cells, K+ depolarization, 5 μM nitrendipine to block L-type channels; read-out: IMR 32 IC50
row,Compound,IC50
1,"CC(C)C[C@@H](C(=O)N[C@@H](Cc1ccc(OCc2ccccc2)cc1)C(=O)NC1CCN(Cc2ccccc2)CC1)N(C)CC1CCCCC1 (relative stereo) [Example 29, [S-(R*,R*)]-2-(Cyclohexylmethyl-methyl-amino)-4-methyl-pentanoic acid [2-(4-benzyloxy-phenyl)-1-(1-benzyl-piperidin-4-ylcarbamoyl)-ethyl]-amide]",600 nM
2,"CC(C)CCN(C)[C@@H](CC(C)C)C(=O)N[C@@H](Cc1ccc(OCc2ccccc2)cc1)C(=O)NC(C)(CO)CO (relative stereo) [Example 62, [S-(R*,R*)]-4-Methyl-2-[methyl-(3-methyl-butyl)-amino]-pentanoic acid [2-(4-benzyloxy-phenyl)-1-(2-hydroxy-1-hydroxymethyl-1-methyl-ethylcarbamoyl)-ethyl]-amide]",1100 nM
3,"CC(C)C[C@H](N[C@@H]1C=CCCC1)C(=O)NC(Cc1ccc(OCc2ccccc2)cc1)C(=O)NC(C)(C)C (relative stereo) [Example 49, [S-(R*,R*)]-2-(Cyclohex-2-enylamino)-4-methyl-pentanoic acid [2-(4-benzyloxy-phenyl)-1-tert-butylcarbamoyl-ethyl]-amide]",660 nM
4,"CCC(COC)NC(=O)[C@H](Cc1ccc(OCc2ccccc2)cc1)NC(=O)[C@H](CC(C)C)N(C)CCC(C)C (relative stereo) [Example 63, [S-(R*,R*)]-4-Methyl-2-[methyl-(3-methyl-butyl)-amino]-pentanoic acid [2-(4-benzyloxy-phenyl)-1-(1-methoxymethyl-propylcarbamoyl)-ethyl]-amide]",800 nM
5,"CC(C)C[C@@H](C(=O)N[C@@H](Cc1ccc(OCc2ccccc2)cc1)C(=O)N1CCN(Cc2ccccc2)CC1)N(C)CC1CCCCC1 (relative stereo) [Example 28, [S-(R*,R*)]-2-(Cyclohexylmethyl-methyl-amino)-4-methyl-pentanoic acid [1-(4-benzyloxy-benzyl)-2-(4-benzyl-piperazin-1-yl)-2-oxo-ethyl]-amide]",500 nM
6,"CC(C)CCN(C)[C@@H](CC(C)C)C(=O)N[C@@H](Cc1ccc(OCc2ccccc2)cc1)C(=O)NCCc1ccccn1 (relative stereo) [Example 58, [S-(R*,R*)]-4-Methyl-2-[methyl-(3-methyl-butyl)-amino]-pentanoic acid [2-(4-benzyloxy-phenyl)-1-(2-pyridin-2-yl-ethylcarbamoyl)-ethyl]-amide]",1000 nM
7,"CC(C)C[C@@H](C(=O)N[C@@H](Cc1ccc(OCc2ccccc2)cc1)C(=O)NC(C)(C)C)N(C)C1CCCCC1 (relative stereo) [Example 19, [S-(R*,R*)]-2-(Cyclohexyl-methyl-amino)-4-methyl-pentanoic acid [2-(4-benzyloxy-phenyl)-1-tert-butylcarbamoyl-ethyl]-amide]",200 nM
8,"CC(C)C[C@H](NCc1ccc(C(C)(C)C)cc1)C(=O)N[C@@H](Cc1ccc(OCc2ccccc2)cc1)C(=O)OC(C)(C)C (relative stereo) [Example 32, [S-(R*,R*)]-3-(4-Benzyloxy-phenyl)-2-[2-(4-tert-butyl-benzylamino)-4-methyl-pentanoylamino]-propionic acid tert-butyl ester]",250 nM
9,"CCC(COC)NC(=O)[C@H](Cc1ccc(OCc2ccccc2)cc1)NC(=O)[C@H](CC(C)C)NC1CCOCC1 (relative stereo) [Example 75, [S-(R*,R*)]-4-Methyl-2-(tetrahydro-pyran-4-ylamino)-pentanoic acid [2-(4-benzyloxy-phenyl)-1-(1-methoxymethyl-propylcarbamoyl)-ethyl]-amide]",2400 nM
10,"CC(C)C[C@@H](C(=O)N[C@@H](Cc1ccc(OCc2ccccc2)cc1)C(=O)NC(C)(C)C)N(C)Cc1ccncc1 (relative stereo) [Example 83, [S-(R*,R*)]-4-Methyl-2-(methyl-pyridin4-ylmethyl-amino)-pentanoic acid [2-(4-benzyloxy-phenyl)-1-tert-butylcarbamoyl-ethyl]-amide]",1300 nM
11,"CC(C)C[C@@H](C(=O)N[C@@H](Cc1ccc(OCc2ccccc2)cc1)C(=O)NC(C)(C)C)N(C)Cc1ccc[nH]1 (relative stereo) [Example 89, [S-(R*,R*)]-4-Methyl-2-[methyl-(1H-pyrrol-2-ylmethyl)-amino]-pentanoic acid [2-(4-benzyloxy-phenyl)-1-tert-butylcarbamoyl-ethyl]-amide]",1000 nM
12,"CC(C)C[C@@H](C(=O)N[C@@H](Cc1ccc(OCc2ccccc2)cc1)C(=O)NCCN1CCCCC1)N(C)C1CCCCC1 (relative stereo) [Example 21, [S-(R*,R*)]-2-(Cyclohexyl-methyl-amino)4-methyl-pentanoic acid [2-(4-benzyloxy-phenyl)-1-(2-piperidin-1-yl-ethylcarbamoyl)-ethyl]-amide]",880 nM

# From patent publication US6117841A, “Substituted peptidylamine calcium channel blockers” (Warner-Lambert Company, priority 1999, dated 2000)
